# Measured values as given in patent US8586611B2 (priority 2005, dated 2013).
# Legend:
# Type in all cases: in vivo
# [1] = test system: Phytophthora infestans; assay: whole plant or invertebrate; settings: tomato late blight
# [2] = test system: Erysiphe graminis f. sp. tritici; assay: Test E: wheat powdery mildew, spray the day before inoculation (disease rating, 100 = 100% disease control)
# Description: (§1) The test compounds were first dissolved in acetone in an amount equal to 3% of the final volume and then suspended at the desired concentration (in ppm) in acetone and purified water (50/50 mix by volume) containing 250 ppm of the surfactant Trem® 014 (polyhydric alcohol esters). The resulting test suspensions were then used in tests A-E. Spraying a 200 ppm test suspension to the point of run-off on the test plants was the equivalent of a rate of 500 g/ha.
# The test suspension was sprayed to the point of run-off on wheat seedlings. The following day the seedlings were inoculated with a spore dust of Erysiphe graminis f. sp. tritici, (the causal agent of wheat powdery mildew) and incubated in a growth chamber at 20° C. for 7 days, after which disease ratings were made.
# (§2) Results for Tests A-F are given in Table A. In the table, a rating of 100 indicates 100% disease control and a rating of 0 indicates no disease control (relative to the controls). A dash (-) indicates no test results.
# [3] = test system: Phytophthora infestans; assay: whole plant or invertebrate; settings: tomato late blight; remark: listed apart in the source
# [4] = test system: Plasmopara viticola; assay: Test B: grape downy mildew, spray 24 h after inoculation (disease rating, 100 = 100% disease control)
# Description: as §1
# Grape seedlings were inoculated with a spore suspension of Plasmopara viticola (the causal agent of grape downy mildew) and incubated in a saturated atmosphere at 20° C. for 24 h. After a short drying period, the test suspension was sprayed to the point of run-off on the grape seedlings and then moved to a growth chamber at 20° C. for 5 days, after which the test units were placed back into a saturated atmosphere at 20° C. for 24 h. Upon removal, disease ratings were made.
# as §2
# [5] = spray the day before inoculation, tested at 40 ppm
# [6] = spray 17 h after inoculation, compounds without asterisk (not 40 or 10 ppm)
# [7] = spray the day before inoculation, compounds without asterisk (not 40 or 10 ppm)
# [8] = spray 24 h after inoculation, compounds without asterisk (not 40 or 10 ppm)
Compound,"Test D disease rating (100 = 100% disease control, 0 = no disease control) [1, 6]","Test E disease rating (100 = 100% disease control, 0 = no disease control) [2, 7]","Test C disease rating (100 = 100% disease control, 0 = no disease control) [3, 7]","Test B disease rating (100 = 100% disease control, 0 = no disease control) [4, 8]",other results
"Cc1cc(C(F)(F)F)nn1CC(=O)N1C=CC(c2nc(C(=O)N(C)[C@@H]3CCCc4ccccc43)cs2)CC1 (stereo partly drawn) [Compound 315, N-methyl-2-[1,2,3,4-tetrahydro-1-[[5-methyl-3-(trifluoromethyl)-1H-pyrazol-1-yl]acetyl]-4-pyridinyl]-N-[(1R)-1,2,3,4-tetrahydro-1-naphthalenyl]-4-thiazolecarboxamide]",–,–,–,–,"Test D disease rating (100 = 100% disease control, 0 = no disease control) ([1]; sprayed 17 h after inoculation, tested at 10 ppm (**)): 88; Test E disease rating (100 = 100% disease control, 0 = no disease control) ([2]; sprayed the day before inoculation, 7 days at 20° C., tested at 10 ppm (**)): 0; Test C disease rating (100 = 100% disease control, 0 = no disease control) ([3]; sprayed the day before inoculation, tested at 10 ppm (**)): 100; Test B disease rating (100 = 100% disease control, 0 = no disease control) ([4]; sprayed 24 h after inoculation, tested at 10 ppm (**)): 72"
C[C@H](c1ccccc1)N(C)C(=O)c1csc(C2CCN(C(=O)Cc3cccc(F)c3F)CC2)n1 [compound 46],–,–,–,–,"Test D disease rating (100 = 100% disease control, 0 = no disease control) ([1]; spray 17 h after inoculation, tested at 40 ppm): 0%; Test E disease rating (100 = 100% disease control, 0 = no disease control) [2, 5]: 0%; Test C disease rating (100 = 100% disease control, 0 = no disease control) [3, 5]: 0%; Test B disease rating (100 = 100% disease control, 0 = no disease control) ([4]; spray 24 h after inoculation, tested at 40 ppm): 0%"
COc1ccccc1CC(=O)N1CCN(c2nc(C(=O)N(C)[C@H](C)c3ccccc3)co2)CC1 [compound 53],89%,0%,100%,20%,–
Cc1ccc(C)c(CC(=O)N2CCC(c3nc(C(=O)N(C)[C@H](C)c4cccc(C(F)(F)F)c4)cs3)CC2)c1 [compound 56],0%,0%,93%,31%,–
Cc1cccc(CC(=O)N2CCC(c3nc(C(=O)N(C)C(C)c4ncc(Cl)cc4Cl)cs3)CC2)c1 (stereo not drawn) [compound 61],0%,0%,69%,2%,–
CC(c1cccnc1)N(C)C(=O)c1csc(C2CCN(C(=O)Cc3cccc(C(F)(F)F)c3)CC2)n1 (stereo not drawn) [compound 66],42%,0%,54%,2%,–
C[C@H](c1ccccc1)N(C)C(=O)c1csc(C2CCN(C(=O)Cn3cc(Br)cn3)CC2)n1 [compound 71],0%,0%,74%,34%,–
Cc1ccn(CC(=O)N2CCC(c3nc(C(=O)N(C)[C@H](C)c4ccccc4)cs3)CC2)n1 [compound 72],66%,0%,91%,1%,–
Cc1cnn(CC(=O)N2CCC(c3nc(C(=O)N(C)[C@H](C)c4ccccc4)cs3)CC2)c1 [compound 73],9%,0%,75%,2%,–
CC(c1ccncc1)N(C)C(=O)c1csc(C2CCN(C(=O)Cc3cccc(C(F)(F)F)c3)CC2)n1 (stereo not drawn) [compound 76],0%,0%,79%,0%,–
CCOc1ccccc1CC(=O)N1CCC(c2nc(C(=O)N(C)[C@H](C)c3ccccc3)cs2)CC1 [compound 78],46%,0%,78%,100%,–
CCOc1cccc(CC(=O)N2CCC(c3nc(C(=O)N(C)[C@H](C)c4ccccc4)cs3)CC2)c1 [compound 79],0%,0%,77%,82%,–
C[C@H](c1ccccc1)N(C)C(=O)c1csc(C2CCN(C(=O)Cc3cccnc3)CC2)n1 [compound 83],0%,0%,31%,14%,–
C[C@H](c1ccccc1)N(C)C(=O)c1csc(C2CCN(C(=O)Cc3ccncc3)CC2)n1 [compound 84],0%,0%,44%,41%,–
CCCCC(c1ccccc1)N(C)C(=O)c1csc(C2CCN(C(=O)Cc3cc(C)ccc3C)CC2)n1 (stereo not drawn) [compound 85],9%,32%,99%,99%,–
C[C@H](c1ccccc1)N(C)C(=O)c1csc(C2CCN(C(=O)Cc3cccs3)CC2)n1 [compound 88],0%,0%,33%,43%,–
COC(=O)Cc1ccccc1CC(=O)N1CCC(c2nc(C(=O)N(C)[C@H](C)c3ccccc3)cs2)CC1 [compound 90],9%,0%,26%,17%,–
Cc1nc(CC(=O)N2CCC(c3nc(C(=O)N(C)[C@H](C)c4ccccc4)cs3)CC2)cs1 [compound 91],79%,0%,99%,16%,–
C[C@H](c1ccccc1)N(C)C(=O)c1csc(C2CCN(C(=O)Cc3cc(C(C)(C)C)no3)CC2)n1 [compound 93],0%,0%,26%,9%,–
Cc1ccc(C)c(CC(=O)N2CCC(c3nc(C(=O)N(C)C(c4ccccc4)C(C)C)cs3)CC2)c1 (stereo not drawn) [compound 96],49%,0%,100%,98%,–
Cc1ccc(C)c(CC(=O)N2CCC(c3nc(C(=O)N(C)C(CC(C)C)c4ccccc4)cs3)CC2)c1 (stereo not drawn) [compound 97],0%,0%,86%,53%,–
